# Results from ChEMBL document CHEMBL2073963, “Transport of methotrexate (MTX) and folates by multidrug resistance protein (MRP) 3 and MRP1: effect of polyglutamylation on MTX transport” (Cancer Res, 2001).
# Key:
# Format in all cases: functional, cell membranes
# Set-up in all cases: scale not given: the % may be the effect or the level left
# [1] = biological target: Multidrug resistance associated protein (Homo sapiens) (UniProt Q96QA9); assay: TP_TRANSPORTER: inhibition of MTX uptake (MTX: 1 uM, E217betaG: 100 uM) in membrane vesicles from MRP3-expressing HEK293 cells; settings: Membrane vesicle
# Chain of Multidrug resistance associated protein (Homo sapiens) (Q96QA9 as listed by the source): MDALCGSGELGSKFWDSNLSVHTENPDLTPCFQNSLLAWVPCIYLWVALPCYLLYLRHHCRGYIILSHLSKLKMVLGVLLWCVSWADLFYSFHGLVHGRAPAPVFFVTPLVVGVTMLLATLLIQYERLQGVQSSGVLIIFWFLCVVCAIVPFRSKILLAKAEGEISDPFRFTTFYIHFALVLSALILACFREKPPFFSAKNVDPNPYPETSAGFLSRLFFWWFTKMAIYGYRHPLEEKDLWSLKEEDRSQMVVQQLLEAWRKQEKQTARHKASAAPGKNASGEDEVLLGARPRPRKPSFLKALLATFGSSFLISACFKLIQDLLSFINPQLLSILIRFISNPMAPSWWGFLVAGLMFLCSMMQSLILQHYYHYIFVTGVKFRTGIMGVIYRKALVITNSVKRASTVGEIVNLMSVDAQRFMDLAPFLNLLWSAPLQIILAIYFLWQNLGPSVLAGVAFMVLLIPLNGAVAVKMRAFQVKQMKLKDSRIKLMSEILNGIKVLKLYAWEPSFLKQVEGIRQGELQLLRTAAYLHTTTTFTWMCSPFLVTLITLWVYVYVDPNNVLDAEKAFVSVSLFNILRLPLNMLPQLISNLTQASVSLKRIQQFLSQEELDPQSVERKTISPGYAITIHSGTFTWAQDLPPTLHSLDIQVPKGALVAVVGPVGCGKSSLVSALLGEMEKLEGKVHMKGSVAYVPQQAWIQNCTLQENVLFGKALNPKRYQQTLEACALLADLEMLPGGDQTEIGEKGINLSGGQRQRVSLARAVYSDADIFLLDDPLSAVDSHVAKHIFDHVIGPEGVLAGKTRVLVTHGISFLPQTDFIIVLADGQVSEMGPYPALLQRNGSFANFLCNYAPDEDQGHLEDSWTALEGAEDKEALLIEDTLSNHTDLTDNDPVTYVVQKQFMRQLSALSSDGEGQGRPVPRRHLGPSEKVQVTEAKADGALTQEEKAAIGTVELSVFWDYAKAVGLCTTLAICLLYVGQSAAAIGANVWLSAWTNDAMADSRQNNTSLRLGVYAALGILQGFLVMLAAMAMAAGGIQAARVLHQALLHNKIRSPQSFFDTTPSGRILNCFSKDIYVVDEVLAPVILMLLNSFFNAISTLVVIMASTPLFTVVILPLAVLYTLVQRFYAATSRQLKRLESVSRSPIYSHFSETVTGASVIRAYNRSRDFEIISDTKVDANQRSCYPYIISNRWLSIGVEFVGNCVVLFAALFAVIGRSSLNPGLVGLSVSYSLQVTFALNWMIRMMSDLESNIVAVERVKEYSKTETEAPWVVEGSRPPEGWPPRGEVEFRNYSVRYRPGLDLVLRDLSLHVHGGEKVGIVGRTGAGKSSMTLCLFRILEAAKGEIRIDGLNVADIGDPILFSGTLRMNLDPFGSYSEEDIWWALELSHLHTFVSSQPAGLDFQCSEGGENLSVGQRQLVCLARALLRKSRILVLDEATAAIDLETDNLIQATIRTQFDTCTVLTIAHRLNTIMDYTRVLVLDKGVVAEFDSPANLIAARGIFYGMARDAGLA
# [2] = biological target: Multidrug resistance associated protein (Homo sapiens) (UniProt Q96QA9); assay: TP_TRANSPORTER: inhibition of MTX uptake (MTX: 1 uM, PSC-833: 10 uM) in membrane vesicles from MRP3-expressing HEK293 cells; settings: Membrane vesicle
# [3] = biological target: Multidrug resistance associated protein (Homo sapiens) (UniProt Q96QA9); assay: TP_TRANSPORTER: inhibition of MTX uptake (MTX: 1 uM, PAK-104P: 100 uM) in membrane vesicles from MRP3-expressing HEK293 cells; settings: Membrane vesicle
# [4] = biological target: Multidrug resistance associated protein (Homo sapiens) (UniProt Q96QA9); assay: TP_TRANSPORTER: inhibition of MTX uptake (MTX: 1 uM, AG-A: 1000 uM) in membrane vesicles from MRP3-expressing HEK293 cells; settings: Membrane vesicle
# [5] = biological target: Multidrug resistance associated protein (Homo sapiens) (UniProt Q96QA9); assay: TP_TRANSPORTER: inhibition of MTX uptake (MTX: 1 uM, Vincristine: 300 uM) in membrane vesicle from MRP3-expessing HEK 293 cell; settings: HEK293
# [6] = biological target: Multidrug resistance associated protein (Homo sapiens) (UniProt Q96QA9); assay: TP_TRANSPORTER: inhibition of MTX uptake (MTX: 1 uM, MK571: 100 uM) in membrane vesicles from MRP3-expressing HEK293 cells; settings: Membrane vesicle
# [7] = biological target: Multidrug resistance associated protein (Homo sapiens) (UniProt Q96QA9); assay: TP_TRANSPORTER: inhibition of MTX uptake (MTX: 1 uM, GC: 300 uM) in membrane vesicles from MRP3-expressing HEK293 cells; settings: Membrane vesicle
# [8] = biological target: Multidrug resistance associated protein (Homo sapiens) (UniProt Q96QA9); assay: TP_TRANSPORTER: inhibition of MTX uptake (MTX: 1 uM, VP-16: 300 uM) in membrane vesicles from MRP3-expressing HEK293 cells; settings: Membrane vesicle
# [9] = biological target: Multidrug resistance associated protein (Homo sapiens) (UniProt Q96QA9); assay: TP_TRANSPORTER: inhibition of MTX uptake (MTX: 1 uM, DOX;G: 300 uM) in membrane vesicles from MRP3-expressing HEK293 cells; settings: Membrane vesicle
smiles,measurement,setting,value
C[C@]12CC[C@@H]3c4ccc(O)cc4CC[C@H]3[C@@H]1CC[C@@H]2O[C@@H]1O[C@H](C(=O)O)[C@@H](O)[C@H](O)[C@H]1O,Activity,[1],8.27%
C/C=C/C[C@@H](C)C(=O)[C@H]1C(=O)N[C@@H](C(C)C)C(=O)N(C)CC(=O)N(C)[C@@H](CC(C)C)C(=O)N[C@@H](C(C)C)C(=O)N(C)[C@@H](CC(C)C)C(=O)N[C@@H](C)C(=O)N[C@H](C)C(=O)N(C)[C@@H](CC(C)C)C(=O)N(C)[C@@H](CC(C)C)C(=O)N(C)[C@@H](C(C)C)C(=O)N1C,Activity,[2],61.4%
Cc1nc(C)c(P2(=O)O[C@H](C)C[C@@H](C)O2)c(-c2cccc([N+](=O)[O-])c2)c1C(=O)OCCN1CCN(C(c2ccccc2)c2ccccc2)CC1 (some centres undefined),Activity,[3],3%
CC(=O)O[C@@H]1[C@@H]2[C@@H](OC(C)=O)C=C3[C@H]([C@H](O)C[C@]4(C)[C@@H]([C@H](C)[C@H](O)CCC(C)C)CC[C@@H]34)[C@@]2(C)CC[C@@H]1OC(C)=O,Activity,[4],56.9%
CC[C@]1(O)C[C@H]2CN(CCc3c([nH]c4ccccc34)[C@@](C(=O)OC)(c3cc4c(cc3OC)N(C=O)[C@H]3[C@@](O)(C(=O)OC)[C@H](OC(C)=O)[C@]5(CC)C=CCN6CC[C@]43[C@@H]65)C2)C1,Activity,[5],39.1%
CN(C)C(=O)CCSC(SCCC(=O)O)c1cccc(/C=C/c2ccc3ccc(Cl)cc3n2)c1 (centres undefined),Activity,[6],2.3%
C[C@H](CCC(=O)NCC(=O)O)[C@H]1CC[C@H]2[C@@H]3[C@H](O)C[C@@H]4C[C@H](O)CC[C@]4(C)[C@H]3C[C@H](O)[C@]12C,Activity,[7],10.4%
COc1cc([C@@H]2c3cc4c(cc3[C@@H](O[C@@H]3O[C@@H]5CO[C@@H](C)O[C@H]5[C@H](O)[C@H]3O)[C@H]3COC(=O)[C@H]23)OCO4)cc(OC)c1O,Activity,[8],3.47%
COc1cccc2c1C(=O)c1c(O)c3c(c(O)c1C2=O)C[C@@](O)(C(=O)CO)C[C@@H]3O[C@H]1C[C@H](N)[C@H](O)[C@H](C)O1,Activity,[9],80%
